The source of these data is ChEMBL document CHEMBL3507680, “University of Dundee, Gates Library screen for HepG2 cell viability”.

The nature of this series: Human HepG2 cell viability assay in 384 well format. Type of series: toxicity, cell-based. The arrangement: dose 125 nL, time 70.5 hour; concentration not given beside the values. Conditions: HepG2 cells, read-out: Inhibition.

With `COc1c(NS(=O)(=O)c2ccc(F)c(C)c2)c(C)nn1C`, the cytotoxicity at 70.5 h stood at 0.334%.

As to `Cc1cc(NC(=O)CCCn2ccnc2C)nc(C(C)C)n1`, the cytotoxicity at 70.5 h worked out at 0.794%.

For `CNC(=O)c1cccnc1NCCOc1ccccc1`, the cytotoxicity at 70.5 h was -0.952%.

`O=C1CN(C(=O)CSC2CCCc3ccccc32)CCN1` (stereo unspecified): the cytotoxicity at 70.5 h amounted to 5.33%.

Consider `CC(C)n1nc2c(cc1=O)CN(c1nc3ccccc3s1)CC2`, for which the cytotoxicity at 70.5 h was found to be 3.31%.

`c1ccc2nc(N3CCCCC3)c(NCc3nnc4n3CCC4)nc2c1`: the cytotoxicity at 70.5 h was -8.39%.

For `Fc1ccc(C2(NCc3ccccc3)CCOCC2)cc1`, the cytotoxicity at 70.5 h was -3.51%.

Regarding `Cc1cc(CN(C)Cc2csc(-c3ccc(C(C)C)cc3)n2)no1`, the cytotoxicity at 70.5 h came to 14.4%.

On to `Cc1cccc(C)c1NC(=O)CNC(C)Cc1ccsc1` (stereo unspecified), for which the cytotoxicity at 70.5 h amounted to 32.9%.

As to `CCn1cc(CNc2ccc(Br)c(OC)c2)cn1`, the cytotoxicity at 70.5 h was 4.22%.

Turning to `N#Cc1ncn(CCS(=O)(=O)c2ccccc2)n1`, the cytotoxicity at 70.5 h was -16.8%.

`CNC(=O)CCS(=O)(=O)Cc1nnnn1-c1ccccc1`: the cytotoxicity at 70.5 h was -3.85%.

Regarding `CCn1cnnc1CNC(=O)NCC(C(C)C)N1CCOCC1` (stereo unspecified), the cytotoxicity at 70.5 h is -13%.

Consider `CCn1cnnc1CNC(=O)NCC(C(C)C)N1CCC(C)CC1` (stereo unspecified), for which the cytotoxicity at 70.5 h came out at 10.3%.

Take `Cc1nc(CSc2ccc(C(F)(F)F)cn2)no1`: the cytotoxicity at 70.5 h is -9.49%.

`Cc1cc(NC(=O)NCc2ccc(S(=O)(=O)N3CCCC3)s2)no1`: the cytotoxicity at 70.5 h is -7.64%.

Consider `CCn1cnnc1CNC(=O)NCC(C)(CC)N1CCOCC1` (stereo unspecified), for which the cytotoxicity at 70.5 h is -9.65%.

With `CCn1cnnc1CNC(=O)N(C)Cc1ccccc1OC`, the cytotoxicity at 70.5 h was -4%.

On to `CCS(=O)(=O)Cc1nnnn1-c1ccccc1`, for which the cytotoxicity at 70.5 h is -8.76%.

In the case of `CCOCC(=O)Nc1ccc(N2CCSCC2)cc1C`, the cytotoxicity at 70.5 h was -7.62%.

Take `Cc1c(CS(C)(=O)=O)cccc1NC(=O)CC1CCCC1`: the cytotoxicity at 70.5 h was -7.53%.

Consider `Cc1cc(C(=O)NCC2CCC3(CC2)OCCO3)[nH]n1`, for which the cytotoxicity at 70.5 h was determined as 1.56%.

Consider `C1CCC(CNC2CCCN(Cc3noc(C4CC4)n3)C2)CC1` (stereo unspecified), for which the cytotoxicity at 70.5 h was -15.3%.

`O=C(NCc1ccccc1Cn1cncn1)N1CCCC1`: the cytotoxicity at 70.5 h is -12.2%.

Regarding `CN(C)C(=O)CCS(=O)(=O)Cc1coc(-c2ccc(F)cc2)n1`, the cytotoxicity at 70.5 h was -16.4%.

`CNC(=O)CS(=O)(=O)Cc1coc(-c2cccc(F)c2)n1`: the cytotoxicity at 70.5 h is -8.64%.

Turning to `Cc1nnc(CN2CCC(c3nc4cc(Cl)ccc4o3)CC2)n1C`, the cytotoxicity at 70.5 h is -18.9%.

As to `Clc1ccc2oc(C3CCN(Cc4nc(C5CC5)no4)CC3)nc2c1`, the cytotoxicity at 70.5 h is -16.3%.

Regarding `CCc1nnc(CN2CCC(c3nc4cc(Cl)ccc4o3)CC2)o1`, the cytotoxicity at 70.5 h is -11.3%.

In the case of `CN(CC(=O)N1CCN(c2cnccn2)CC1)c1ccc(Cl)cn1`, the cytotoxicity at 70.5 h is -13.1%.

Consider `COc1ccc(NC(=O)COc2nn(C)c3nc(C)cc(C)c23)cn1`, for which the cytotoxicity at 70.5 h was -18.4%.

For the compound `Cc1cc(NC(=O)CN2CCc3c(nc(C(C)C)n3C)C2)on1`, the cytotoxicity at 70.5 h is -14.3%.

For the compound `CS(=O)(=O)CCCSc1cccc(C#N)c1`, the cytotoxicity at 70.5 h was -13%.

Take `COc1cc(C(=O)NS(=O)(=O)c2cncc(Br)c2)cc(Cl)c1OC`: the cytotoxicity at 70.5 h is -15.8%.

Take `CCN(CC)C(=O)CNC(=O)N1CCC(c2ccccc2)C1` (stereo unspecified): the cytotoxicity at 70.5 h is -6.54%.

Turning to `CC(CNC(=O)c1cc(Cl)ccc1F)N1CCCC1` (stereo unspecified), the cytotoxicity at 70.5 h was -13.5%.

For the compound `CNC(=O)N1CCCCC1CCNS(C)(=O)=O` (stereo unspecified), the cytotoxicity at 70.5 h was -13.3%.

As to `C1CC(NCC2CC2)CN(Cc2noc(C3CC3)n2)C1` (stereo unspecified), the cytotoxicity at 70.5 h is -15.4%.

For `CN(Cc1ccc(Cl)s1)C(=O)c1ccccc1OCC(N)=O`, the cytotoxicity at 70.5 h is -14.1%.

Regarding `CS(=O)(=O)CCNC1CCCN(Cc2noc(C3CC3)n2)C1` (stereo unspecified), the cytotoxicity at 70.5 h is -13.7%.

With `Cc1cc(NC(=O)NCCc2ccc3c(c2)OCCO3)n(C)n1`, the cytotoxicity at 70.5 h was -4.79%.
